# According to patent US20240189408A1, “COMPOSITIONS AND METHODS FOR REDUCING METHANE EMISSIONS IN RUMINANT POPULATIONS” (Arkea Bio Corp., priority 2022, published 2024):
# Like-named read-outs stand apart in the source and are kept apart here.
# Key:
# [1] = tested on: methane production in ruminants; settings: cited from earlier work
# [2] = 3-NOP to adsorbent ratio study; assay type: physicochemical; settings: 24 hr, HPLC
# Description: Optimal loading of 3-NOP onto adsorbents was determined by varying ratios of 3-NOP to adsorbent. 3-NOP and adsorbent were speed mixed at 2000 rpm for 1 min at the following ratios by weight: 1:1.5, 1:2, 1:2.5. The adsorbed 3-NOP powder mixture was then placed in distilled water at 1% 3-NOP loading. The solution was allowed to equilibrate for 24 hr and then an aliquot was taken for HPLC to determine the reduction in 3-NOP concentration.
# [3] = 3-NOP pH and temperature stability by HPLC; assay type: physicochemical; settings: 1-month, 4-30C, pH 4-10
# Excerpt: 3-NOP pH and Temperature Stability: Confirmed via HPLC over a 1-month time period at temperature between 4-30C and pH 4-10.
# [4] = 3-NOP volatility, mass loss open to air; assay type: physicochemical; settings: 500 mg in 5 dram vial open to air, ~18-24C, 15-30% RH, 6 days
# Description: 3-NOP Volatility:500 mg of 3-NOP in a 5 dram vial was left open to air at ˜18-24C at 15-30% RH over the course of 6 days. Average mass loss is ˜0.25% per day.
# [5] = tested on: rumen methanogens; settings: cited from earlier work
# [6] = tested on: rumen methanogens; settings: sheep, 0.5 g/day; cited from earlier work
# [7] = tested on: rumen Methanobrevibacter; settings: 5.6 μmol/L, in vitro; rumen bacteria not inhibited; cited from earlier work
# [8] = tested on: rumen methanogens; settings: 3.5 g/L, continuous fermenters with forages as a substrate; cited from earlier work
# [9] = tested on: rumen methanogens; settings: goats, 10 g/day/goat; cited from earlier work
# [10] = tested on: Methanobrevibacter ruminantium; assay: Methane production of methanogen monocultures treated with sera from vaccinated animals; assay type: cell-based; settings: small molecule inhibitor at 3 different concentrations, FIG. 17B
# Description: Briefly, BY medium is inoculated with a methanogen-of-interest and combined with serum. The culture tube is crimped closed and pressurized with 80% hydrogen, 20% carbon dioxide. The cultures are incubated and methane in measured intermittently using a GazoMat handheld methane monitoring device. Methane is plotted as a function of time for the various treatment groups and the control group.
# 200 uL of serum from vaccinated animals were added to sterile anaerobic culture tubes. Open plasma containing tubes were placed into an anaerobic chamber containing 95% nitrogen and 5% hydrogen and allowed to stand 1 hr at ambient temperature. A single seeded culture of methanogen (M. gottschalkii or M. ruminantium) was prepared in BY medium at a volume sufficient to distribute 2.5 mL to each plasma sample and control tube. 2.5 mL of methanogen culture was added to each tube containing the serum, a septa was inserted and crimped into place. Sealed tubes were removed from the anaerobic chamber and each was pressurized with 25 PSI 80% H2, 20% CO2 gas via a hypodermic needle through the septum. Tubes were placed into a 38° C. shaking incubator and periodically removed for methane measurements. Methane measurements in the tube headspace were made with a handheld remote methane detector using a jig to hold the instrument and tube during measurement.
smiles,measurement,setting,value
"O=[N+]([O-])OCCCO [3-NOP, 3-nitrooxypropanol]",Addition amount; maximum methane suppression amount,"[1]; 0.08 mg/g dry matter (Alvarez-Hess et al., 2019)",0.08 mg/g dry matter; 44%
same,Addition amount; maximum methane suppression amount,"[1]; 60 mg/kg of feed dry matter (Melgar et al., 2020)","26%/day (Melgar et al., 2020)"
same,Addition amount; maximum methane suppression amount,"[1]; 1.6 g, concentrate pellet (Van Wesemael et al., 2019)",23%
same,Addition amount; maximum methane suppression amount,"[1]; 1.6 g, roughage (Van Wesemael et al., 2019)",28%
same,Average Integrated Area of 3-NOP in solution,"[2]; 3-NOP:Adsorbent 1:1.5, distilled water at 1% 3-NOP loading",2566.4
same,Average Integrated Area of 3-NOP in solution,"[2]; 3-NOP:Adsorbent 1:2, distilled water at 1% 3-NOP loading",2566.4
same,Average Integrated Area of 3-NOP in solution,"[2]; 3-NOP:Adsorbent 1:2.5, distilled water at 1% 3-NOP loading",2566.4
same,pH and Temperature Stability,[3],Confirmed
same,Average mass loss,[4],~0.25 % per day
same,decrease of CH4 yield,"[5]; beef cattle, 2.0 g/day/cow",59%
same,persistence of the inhibition,"[5]; beef cattle, 2.0 g/day/cow",up to 112 days
same,decrease of CH4 production,"[5]; dairy cows, 40-80 mg/kg feed DM, persistently for up to 84 days",about 30%
same,degree of CH4 suppression,"[5]; directly added to the rumen through rumen cannula, daily dose 0.50 or 2.5 g per cow",7-10%
same,decrease of CH4 production,[6],29%
CC[C@H](C)C(=O)O[C@H]1CCC=C2C=C[C@H](C)[C@H](CC[C@@H]3C[C@@H](O)CC(=O)O3)[C@H]21 [mevastatin],growth,[7],inhibited the growth of all three strains
O=C(O)/C=C/C(=O)O [fumarate],decrease of CH4 production,[8],38%
same,decrease of abundance of methanogens and CH4 production,[9],11.9%
CCCCCCCCCCCC(=O)O [lauric acid],methane production rate,[10],reduction is methane production rate
